Data on ten substances can be found in article PMC5799255, “Histone H5 is a potent Antimicrobial Agent and a template for novel Antimicrobial Peptides” (Scientific Reports, 2018).

Assay [1] concerns Listeria monocytogenes (ATCC 19112). The following applies: preliminary peptide screen, peptide purities 50% to 81.9%, tested 1-64 µg/mL, broth microdilution, mean ± SD, n = 3. Here is the method: (§1) Antimicrobial activity of histone H5 against a variety of Gram-positive and Gram-negative planktonic bacteria was evaluated using a broth microdilution assay.
(§2) The antimicrobial activity of these peptides against Gram-positive and Gram-negative planktonic bacteria was evaluated using broth microdilution assays.
(§3) The bacterial strains tested in this study were Gram-positive bacteria (Bacillus cereus (ATCC 11778), methicillin-sensitive Staphylococcus aureus (ATCC 6538), methicillin-resistant Staphylococcus aureus (ATCC 29247), Listeria monocytogenes (ATCC 19112), Enterococcus faecalis (clinical isolate) and vancomycin-resistant Enterococcus (ATCC 51299)) and Gram-negative bacteria Escherichia coli K12 (ATCC 29425), Escherichia coli (O157:H7), Pseudomonas aeruginosa (ATCC 15442) and Salmonella typhimurium (ATCC 1535)). Bacterial colonies from glycerol stocks were plated on LB agar plates (BHI agar plates for L. monocytogenes) and incubated overnight at 37 °C. Single colonies from these plates were grown in 3 mL of LB broth (BHI broth for L. monocytogenes) overnight at 37 °C and shaken at 250 rpm. […] The bacterial suspension was pelleted at 3,000 × g, 4 °C for 10 minutes and washed with PBS (twice), and then adjusted to 10^5–10^6 CFUs/mL in PBS.
(§4) Supplementary Information
(§5) Broth microdilution assay
(§6) The protocol for this step of the project was based on established methods22. Histone H5 or the peptides were dissolved in sterile water, pH 7.4, serially two-fold diluted and aliquoted in a 1:1 (v/v) ratio with bacteria. Kanamycin or ampicillin served as a positive control for inhibition, and sterile water (pH 7.4) as a negative control for inhibition. The tubes were then incubated for 3 hours at 37°C an d shaken at 200 rpm. Next, 100 µL of each tube and 100µL of LB broth (BHI broth for L. monocytogenes) was plated in wells of a 96-well microplate. The microplate was incubated in the EON microplate reader overnight at 206 oscillations/min and at 37°C. During this period, the EON microplate spectrophotometer and Gen5 data analysis software (BioTek, Winooski, VT, USA) were used to monitor the growth of bacteria by measuring the optical density at 600 nm every 30 minutes for 18 hours. The lowest protein concentration without visible bacterial growth was designated as the minimum inhibitory concentration (MIC). Bacteria (10 µL) from the wells at MIC, MIC x 2 and MIC x 3 concentrations of H5 were plated on LB agar (BHI agar for L. monocytogenes) and incubated at 37°C for 18 hours. The lowest concentration of histone H5 without a single colony was designated as the minimum bactericidal concentration (MBC).
On the technique in general: In broth dilution the organism is exposed to a series of concentrations in liquid medium.

Assay [2] relates to Pseudomonas aeruginosa (ATCC 15442). The note with it: preliminary peptide screen, peptide purities 50% to 81.9%, tested 1-64 µg/mL, broth microdilution, mean ± SD, n = 3. Here is the method:
as §1, §2, §3, §4, §5, §6

For assay [3], the system named is E. coli. Also on record: method as in PMID 22723861, PMID 16978580. The note with it: cited from earlier work.
Assay [4] relates to S. aureus. Also noted: method as in PMID 22723861, PMID 16978580. The following applies: cited from earlier work.
The test system of assay [5] is P. aeruginosa. Also noted: method as in PMID 22723861, PMID 16978580. The note with it: cited from earlier work.
Assay [6] relates to E. faecalis. Also noted: method as in PMID 22723861, PMID 16978580. The following applies: cited from earlier work.
Assay [7] has as its system P. aeruginosa biofilms. The note with it: cited from earlier work. The text has this:
(§7) L. monocytogenes and P. aeruginosa are major human pathogens that cause serious illnesses through foodborne and hospital-acquired infections, respectively. […] Moreover, an estimated 51,000 healthcare-associated infections leading to 440 deaths per year in the United States are caused by P. aeruginosa. Additionally, both pathogens have the ability to form biofilms, which enhances their persistence in unfavourable environ ...

For assay [8], the system named is L. monocytogenes biofilms. The note with it: 6.8 µg/mL, 2 and 4 hours of treatment, cited from earlier work.
Excerpt: as §7

In general, MIC refers to the lowest concentration found to suppress growth.

Like-named read-outs stand apart in the source and are kept apart here. Marks after values point to notes of the source that are not given here. Ends that are not written are not given here.

Consider EMIAAAIRAEKSRGGSSRQS [H5(31–50)], for which the MIC result in assay [1] was “inactive”; in assay [1] (listed as H5 (31–50)), “NI ^‡ (Non-inhibitory at the highest concentration tested (64 µg/mL))”; in assay [2], “non-inhibitory”; in assay [2] (listed as H5 (31–50)), “NI ^‡ (Non-inhibitory at the highest concentration tested (64 µg/mL))”.

Turning to “EMIAAAIRAEKSRGGSSRQSIQKYIKSHYK [H5(31–60)]”, the MIC entry in assay [1] is “inactive”; in assay [1] (listed as H5 (31–60)), “NI ^‡ (Non-inhibitory at the highest concentration tested (64 µg/mL))”; in assay [2], “non-inhibitory”; in assay [2] (listed as H5 (31–60)), “NI ^‡ (Non-inhibitory at the highest concentration tested (64 µg/mL))”.

“Human β-defensin-3: a human host defence antimicrobial peptide (GIINTLQKYYCRVRGGRCAVLSCLPKEEQIGKCSTRGRKCCRRKK; ends and bridges not checked; cysteine pairing not given here; UniProt P81534 23-67, looked up)”: the minimal inhibitory concentration (MIC) is recorded as 6 µg/mL in assay [3], 12 µg/mL in assay [4], 13 µg/mL in assay [5] and over 512 µg/mL in assay [6].

In the case of LL-37, in assay [7], the MBEC is on record as 640 µg/mL and the MBEC/MIC ratio is 5–80.

With LSIRRLLAAGVLKQTKGVGA [H5(71–90)], the results for the MIC in assay [1] and in assay [2] were >64^† µg/mL and 26.7 ± 14.1 µg/mL, respectively.

In the case of “RVKASRRSASHPTYSEMIAAAIRAEKSRGG [H5(16–45)]”, the MIC entry is “inactive” in assay [1], “NI ^‡ (Non-inhibitory at the highest concentration tested (64 µg/mL))” in assay [1] (listed as H5 (16–45)), “non-inhibitory” in assay [2] and “NI ^‡ (Non-inhibitory at the highest concentration tested (64 µg/mL))” in assay [2] (listed as H5 (16–45)).

Turning to VLKQTKGVGASGSFRLAKSD [H5(81–100)], the minimal inhibitory concentration (MIC) entry is “inactive” in assay [1], “NI ^‡ (Non-inhibitory at the highest concentration tested (64 µg/mL))” in assay [1] (listed as H5 (81–100)), “non-inhibitory” in assay [2] and “NI ^‡ (Non-inhibitory at the highest concentration tested (64 µg/mL))” in assay [2] (listed as H5 (81–100)).

For magainin II, in assay [7], the MBEC was over 640 µg/mL.

In the case of “melittin: CAMP tested against P. aeruginosa biofilms in the literature”, the MBEC in assay [7] is given as over 640 µg/mL.

In the case of paenibacterin, the results for the “disruption of established biofilms (in words)” value in assay [8] (biofilms developed statically at 30 °C) and in assay [8] (stronger biofilms developed at 37 °C) were “effective” and “not effective”, respectively.
